The results in this text go back to ChEMBL document CHEMBL1123473, “4,5-Disubstituted primaquine analogues as potential antimalarial agents” (1986).

Test [1] has as its system Plasmodium cynomolgi. The experiment in a line: Antimalarial activity against Plasmodium cynomolgi in rhesus monkey at a dose 0.1 mg/kg; 0 of 2. It counts as functional.
Test [2] deals with Rhesus monkey. Briefly: Number of days between the end of the treatment and relapse was reported at a dose 0.316 mg/kg. The format is functional, Cercopithecidae.
In test [3] the test system is Rhesus monkey. The experiment in a line: Number of days between the end of the treatment and relapse was reported at a dose 0.1 mg/kg. It counts as functional, Cercopithecidae.
Test [4] relates to Plasmodium cynomolgi. The experiment in a line: Antimalarial activity against Plasmodium cynomolgi in rhesus monkey 0.316 mg/kg; 1 of 2. It counts as functional.
Test [5] relates to Plasmodium cynomolgi. The experiment in a line: Antimalarial activity against Plasmodium cynomolgi in rhesus monkey 1.0 mg; 2 of 2. It counts as functional.
For test [6], the system named is Plasmodium cynomolgi. The experiment in a line: Antimalarial activity against Plasmodium cynomolgi in rhesus monkey 1.0 mg/kg; 0 of 2. It counts as functional.
Test [7] has as its system Rhesus monkey. Briefly: Number of days between the end of the treatment and relapse was reported at a dose 1.0 mg/kg. It counts as functional, Cercopithecidae.
For test [8], the system named is Plasmodium cynomolgi. Briefly: Antimalarial activity against Plasmodium cynomolgi in rhesus monkey at a dose 0.1 mg/kg; 0 of 1. It counts as functional.
The test system of test [9] is Plasmodium cynomolgi. Briefly: Antimalarial activity against Plasmodium cynomolgi infected rhesus monkey at 0.75 mg/kg dose; 4 of 6. The format is functional.
The test system of test [10] is Plasmodium cynomolgi. The experiment in a line: Antimalarial activity against Plasmodium cynomolgi infected rhesus monkey at 0.25 mg/kg dose; 0 of 6. It counts as functional.
Test [11] concerns Plasmodium cynomolgi. The experiment in a line: Antimalarial activity against Plasmodium cynomolgi infected rhesus monkey at 0.5 mg/kg dose; cured 4 of 6. The format is functional.
Test [12] deals with Plasmodium cynomolgi. Briefly: Antimalarial activity against Plasmodium cynomolgi infected rhesus monkey at 0.5 mg/kg dose; 1 of 1. It counts as functional.
For test [13], the system named is Plasmodium cynomolgi. Briefly: Antimalarial activity against Plasmodium cynomolgi infected Rhesus monkeys (Macaca mulatta) at 0.0625 mg/kg dose; cured 0 of 2. The format is functional.
Test [14] concerns Plasmodium cynomolgi. Briefly: Antimalarial activity against Plasmodium cynomolgi in rhesus monkey at a dose 0.125 mg/kg; 2 of 2. It counts as functional.
The test system of test [15] is Plasmodium cynomolgi. The experiment in a line: Antimalarial activity against Plasmodium cynomolgi infected rhesus monkey at 0.25 mg/kg; 2 of 2. The format is functional.
Test [16] has as its system Plasmodium cynomolgi. The experiment in a line: Antimalarial activity against Plasmodium cynomolgi in rhesus monkey 1.0 mg/kg; 1 of 2. It counts as functional.
Test [17] has as its system Plasmodium cynomolgi. Briefly: Antimalarial activity against Plasmodium cynomolgi in rhesus monkey 0.316 mg/kg; 0 of 1. It counts as functional.
In test [18] the test system is Plasmodium cynomolgi. The experiment in a line: Antimalarial activity against Plasmodium cynomolgi in rhesus monkey 1.0 mg/kg; 0 of 1. The format is functional.

Consider `COCc1ccnc2c(NC(C)CCCN)cc(OC)c(Oc3cccc(C(F)(F)F)c3)c12` (centres undefined), for which the Cures in the test with Plasmodium cynomolgi [1] was found to be 0; with Plasmodium cynomolgi [4], 1; with Plasmodium cynomolgi [5], 2. Also, the Relapses in the test on Rhesus monkey [2] is given as 28; with Rhesus monkey [3], 8.
For the compound `COc1cc(NC(C)CCCN)c2nccc(COc3cccc(C(F)(F)F)c3)c2c1Oc1cccc(C(F)(F)F)c1` (centres undefined), the Cures in the test with Plasmodium cynomolgi [6] and in the test with Plasmodium cynomolgi [8] was 0 in each case. The Relapses with Rhesus monkey [7] and in the test on Rhesus monkey [3] was 11 each time.
`COc1cc(NC(C)CCCN)c2ncccc2c1` (centres undefined) [PRIMAQUINE]: the Cures was 4 in the test on Plasmodium cynomolgi [9], 0 with Plasmodium cynomolgi [10] and 4 with Plasmodium cynomolgi [11].
`COc1cc(NC(C)CCCN)c2nccc(C)c2c1OC` (centres undefined): the Cures in the test on Plasmodium cynomolgi [12] was determined as 1; in the test on Plasmodium cynomolgi [13], 0; in the test on Plasmodium cynomolgi [14], 2; with Plasmodium cynomolgi [15], 2.
With `C=Cc1ccnc2c(NC(C)CCCN)cc(OC)c(OC)c12` (centres undefined), the figures for the Cures in the test with Plasmodium cynomolgi [16], in the test with Plasmodium cynomolgi [17] and in the test with Plasmodium cynomolgi [8] were 1, 0 and 0, respectively. The Relapses came to 23 in the test on Rhesus monkey [2], 27 in the test on Rhesus monkey [7] and 9 with Rhesus monkey [3].
Regarding `COc1cc(NC(C)CCCN)c2nccc(COc3cccc(C(F)(F)F)c3)c2c1OC` (centres undefined), the Relapses with Rhesus monkey [7] amounted to 12. Also, the Cures in the test with Plasmodium cynomolgi [18] worked out at 0.
